Data as given in the supplement of paper PMC10307832.

Tests used:
Assay in all cases: relative viability (nuclei count vs DMSO), 5 days (fraction); higher = more cells survive
[1] = compound: C1=CC=C(C(=C1)C2=CC=C(C=C2)C3=CSC4=C3C(=C(C(=O)N4)C#N)O)O + N=C(N)NC(=N)NCCc1ccccc1 [Phenformin] (partner 250 µM)
Summary of the method: (§1)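 Cells from lung cancer lines were seeded into 1536-well plates and, one day later, dosed by pin tool. Treatments were either a single drug or a fixed dose of an anchor drug with five library-drug doses (not always all listed) in √10 steps. After 5 days, nuclei were stained in a one-step fixation (final 0.05% Triton X-100, 1% formaldehyde, 1 ug/ml Hoechst) and counted on 4× images, and relative viability is the treated-to-vehicle nuclei ratio, as the median of duplicate plates.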

[2] = compound: C1=CC=C(C(=C1)C2=CC=C(C=C2)C3=CSC4=C3C(=C(C(=O)N4)C#N)O)O + Nc1ncn([C@H]2C[C@H](O)[C@@H](CO)O2)c(=O)n1 [Decitabine] (partner 2 µM)
Summary of the method: as §1

TGX 221 + Alpelisib = compound: CC1=CN2C(=O)C=C(N=C2C(=C1)C(C)NC3=CC=CC=C3)N4CCOCC4 [TGX 221] + Cc1nc(NC(=O)N2CCC[C@H]2C(N)=O)sc1-c1ccnc(C(C)(C)C(F)(F)F)c1 [Alpelisib] (partner 2 µM)
Summary of the method: as §1

Ricolinostat + Lapatinib = compound: O=C(CCCCCCNC(=O)c1cnc(N(c2ccccc2)c2ccccc2)nc1)NO [Ricolinostat] + CS(=O)(=O)CCNCc1ccc(-c2ccc3ncnc(Nc4ccc(OCc5cccc(F)c5)c(Cl)c4)c3c2)o1 [Lapatinib] (partner 2 µM)
Summary of the method: as §1

| Cell Line | relative viability ([1]; first compound 0.08 µM) | relative viability ([1]; first compound 0.253 µM) | relative viability ([1]; first compound 0.8 µM) | relative viability ([1]; first compound 2.53 µM) | relative viability ([1]; first compound 8 µM) | relative viability ([2]; first compound 0.08 µM) | relative viability ([2]; first compound 0.253 µM) | relative viability ([2]; first compound 0.8 µM) | relative viability ([2]; first compound 2.53 µM) | relative viability ([2]; first compound 8 µM) | relative viability (TGX 221 + Alpelisib; first compound 0.08 µM) | relative viability (TGX 221 + Alpelisib; first compound 0.253 µM) | relative viability (TGX 221 + Alpelisib; first compound 0.8 µM) | relative viability (TGX 221 + Alpelisib; first compound 2.53 µM) | relative viability (TGX 221 + Alpelisib; first compound 8 µM) | relative viability (Ricolinostat + Lapatinib; first compound 0.08 µM) | relative viability (Ricolinostat + Lapatinib; first compound 0.253 µM) | relative viability (Ricolinostat + Lapatinib; first compound 0.8 µM) | relative viability (Ricolinostat + Lapatinib; first compound 2.53 µM) |
| --- | --- | --- | --- | --- | --- | --- | --- | --- | --- | --- | --- | --- | --- | --- | --- | --- | --- | --- | --- |
| NCI-H838 | 0.316 | 0.641 | 0.538 | 0.54 | 0.543 | 0.456 | 0.5 | 0.483 | 0.457 | 0.417 | 0.902 | 0.88 | 0.849 | 0.723 | 0.631 | 0.683 | 1.08 | 0.955 | 0.873 |
| NCI-H1355 | 0.396 | 0.487 | 0.445 | 0.422 | 0.396 | 0.362 | 0.391 | 0.351 | 0.333 | 0.366 | 0.711 | 0.67 | 0.673 | 0.584 | 0.54 | – | 1.01 | 1 | 0.863 |
| NCI-H1395 | 0.41 | 0.435 | 0.396 | 0.437 | 0.399 | – | 0.801 | 0.703 | 0.702 | 0.745 | 0.935 | 1.16 | 0.89 | 0.514 | 0.584 | – | 1.11 | 0.881 | 0.833 |
| NCI-H1437 | 0.297 | 0.452 | 0.237 | 0.303 | 0.26 | 0.515 | 0.674 | 0.57 | 0.596 | 0.466 | 0.892 | 0.851 | 0.889 | 0.66 | 0.487 | 0.705 | 0.767 | 0.714 | 0.642 |
| NCI-H1651 | 0.272 | 0.336 | 0.398 | 0.365 | 0.278 | 0.538 | 0.639 | 0.548 | 0.593 | 0.464 | 0.83 | 0.742 | 0.77 | 0.716 | 0.498 | 0.6 | 0.702 | 0.731 | 0.636 |
| NCI-H1666 | 0.578 | 0.739 | 0.547 | 0.532 | 0.484 | 0.662 | 0.851 | 0.742 | 0.664 | 0.601 | 0.855 | 0.742 | 0.735 | 0.645 | 0.654 | 0.564 | 0.65 | 0.542 | 0.374 |
| NCI-H1734 | 0.368 | 0.381 | 0.41 | 0.377 | 0.319 | 0.469 | 0.493 | 0.501 | 0.545 | 0.432 | 0.619 | 0.509 | 0.562 | 0.448 | 0.448 | 1 | 1.05 | 1.02 | 0.891 |
| NCI-H1755 | 0.693 | 0.647 | 0.606 | 0.617 | 0.6 | 0.736 | 0.723 | 0.722 | 0.749 | 0.731 | 0.876 | 0.706 | 0.651 | 0.49 | 0.437 | 0.812 | – | 1.02 | 1.01 |
